Source: US20260042753A1 (Merck Patent GmbH, priority 2019, published 2026)
Like-named read-outs stand apart in the source and are kept apart here.

Key:
c-Kit(V654A) = c-Kit(V654A) (Homo sapiens, UniProt P10721, V654A); assay: c-Kit(V654A) assay; type: biochemical
Outline: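 Radiometric filter-binding read-out: after 3% phosphoric acid stop, peptide-incorporated 33P on filtermat scintillation-counted. Enzyme: human c-Kit V654A, residues 544–end, N-terminal GST fusion.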

[1] = target: mutant cKIT (560-576 and V654A) in GIST430/654 cell line (Homo sapiens (Human), UniProt P10721, DEL560-576/V654A); assay: Cellular testing of cKIT mutant inhibitors: phospho-Y307-cKIT Luminex assay in GIST430/654 cells; type: cell-based; conditions: read-out: GIST 430/654 IC50
Outline: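 GIST430/654 cells carrying constitutively active cKIT (Δ560-576/V654A) were grown with 100 nM imatinib, then treated with serially diluted compound for 45 min. Lysates were captured on anti-total-cKIT Luminex beads overnight at 4 °C and probed for phospho-Y307-cKIT. IC50 was fitted from percent of 0.3% DMSO control.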

[2] = Table 1, cKIT autophosphorylation, compounds 45 min
[3] = Table 2, corresponding triazole derivatives

mutant cKIT (560-576 and V654A) in GIST430/654 cell line, sequence (P10721 other isoform, or with tags, fused parts or gaps V654A/del 1-25/del 560-576 limits assumed): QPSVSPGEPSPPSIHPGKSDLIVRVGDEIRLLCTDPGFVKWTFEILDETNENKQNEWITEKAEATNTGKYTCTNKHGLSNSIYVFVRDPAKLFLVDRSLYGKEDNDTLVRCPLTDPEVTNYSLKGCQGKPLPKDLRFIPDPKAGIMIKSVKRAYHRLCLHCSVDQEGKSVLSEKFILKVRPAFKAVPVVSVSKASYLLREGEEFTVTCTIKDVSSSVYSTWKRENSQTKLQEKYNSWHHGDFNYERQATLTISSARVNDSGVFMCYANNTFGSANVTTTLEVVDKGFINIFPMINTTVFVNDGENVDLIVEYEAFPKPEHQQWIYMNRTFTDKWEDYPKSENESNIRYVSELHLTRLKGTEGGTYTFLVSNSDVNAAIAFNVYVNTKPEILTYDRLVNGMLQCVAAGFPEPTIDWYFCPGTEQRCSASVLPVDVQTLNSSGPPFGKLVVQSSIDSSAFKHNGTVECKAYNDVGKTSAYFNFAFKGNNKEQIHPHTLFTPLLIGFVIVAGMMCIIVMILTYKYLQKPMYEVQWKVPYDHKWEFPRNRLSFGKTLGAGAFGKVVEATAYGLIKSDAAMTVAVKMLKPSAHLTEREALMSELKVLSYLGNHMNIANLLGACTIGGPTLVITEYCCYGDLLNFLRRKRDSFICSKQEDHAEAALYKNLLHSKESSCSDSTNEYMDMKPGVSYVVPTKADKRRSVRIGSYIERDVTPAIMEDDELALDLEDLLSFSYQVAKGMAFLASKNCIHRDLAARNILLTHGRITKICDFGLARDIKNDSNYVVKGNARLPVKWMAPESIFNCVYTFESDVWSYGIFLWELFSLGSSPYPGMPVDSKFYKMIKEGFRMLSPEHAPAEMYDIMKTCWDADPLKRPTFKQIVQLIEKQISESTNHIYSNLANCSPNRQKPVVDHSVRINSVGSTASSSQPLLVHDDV

| IC50 (c-Kit(V654A); Table 1, 200 μM ATP) [nM] | IC50 [1, 2] [nM] | IC50 (c-Kit(V654A); [3]) [nM] | IC50 [1, 3] [nM] | Compound |
| --- | --- | --- | --- | --- |
| 15 | 860 |  |  | COCCOc1cc2[nH]nc(-c3cc(-c4ccc(C(=O)N5CC(F)C5)nc4)no3)c2cc1F [A98, (3-fluoro-azetidin-1-yl)-(5-{5-[5-fluoro-6-(2-methoxy-ethoxy)-1H-indazol-3-yl]-isoxazol-3-yl}-pyridin-2-yl)-methanone] |
| 0.8 | 30 |  |  | COCCOc1cc2[nH]nc(-c3cc(-c4ccc(C(=O)N5CC(N6CCO[C@@H](C)C6)C5)cc4)no3)c2cc1F [A210, 5-fluoro-6-(2-methoxyethoxy)-3-[3-(4-{3-[(2S)-2-methylmorpholin-4-yl]azetidine-1-carbonyl}phenyl)-1,2-oxazol-5-yl]-1H-indazole] |
| 2 | 150 |  |  | COCCOc1cc2[nH]nc(-c3cc(-c4ccc(S(C)(=N)=O)cc4)no3)c2cc1F (stereo not shown) [A226, (4-{5-[5-fluoro-6-(2-methoxyethoxy)-1H-indazol-3-yl]-1,2-oxazol-3-yl}phenyl)(imino)methyl-lambda6-sulfanone] |
| 7.6 | 180 |  |  | COCCOc1cc2[nH]nc(-c3cc(-c4cnn(C)c4)no3)c2cc1F [A137, 5-fluoro-6-(2-methoxy-ethoxy)-3-[3-(1-methyl-1H-pyrazol-4-yl)-isoxazol-5-yl]-1H-indazole] |
| 12 | 570 |  |  | COCCOc1cc2[nH]nc(-c3cc(-c4ccc(-n5cncn5)cc4)no3)c2cc1F [A21, 5-fluoro-6-(2-methoxyethoxy)-3-{3-[4-(1H-1,2,4-triazol-1-yl)phenyl]-1,2-oxazol-5-yl}-1H-indazole] |
| 1.8 | 70 |  |  | COCCOc1cc2[nH]nc(-c3cc(-c4ccc(C(=O)N5CC[C@H]5C(C)(C)O)cc4)on3)c2cc1F [A148, (4-{3-[5-fluoro-6-(2-methoxy-ethoxy)-1H-indazol-3-yl]-isoxazol-5-yl}-phenyl)-[(S)-2-(1-hydroxy-1-methyl-ethyl)-azetidin-1-yl]-methanone] |
| 0.53 | 27 |  |  | COCCOc1cc2[nH]nc(-c3cc(-c4ccc(C(=O)N5CC6(CCOCC6)C5)cc4)no3)c2cc1F [A165, 2-(4-{5-[5-fluoro-6-(2-methoxyethoxy)-1H-indazol-3-yl]-1,2-oxazol-3-yl}benzoyl)-7-oxa-2-azaspiro[3.5]nonane] |
| 0.58 | 100 |  |  | COCCOc1cc2[nH]nc(-c3cc(-c4ccc(C(=O)N5CCC[C@@H]5CNS(C)(=O)=O)cc4)no3)c2cc1F [A94, N-{[(2R)-1-(4-{5-[5-fluoro-6-(2-methoxyethoxy)-1H-indazol-3-yl]-1,2-oxazol-3-yl}benzoyl)pyrrolidin-2-yl]methyl}methanesulfonamide] |
| 13 | 330 |  |  | CC(C)(O)[C@@H]1CCCN1C(=O)c1ccc(-c2cc(-c3n[nH]c4cc(Br)ccc34)on2)cc1 [A4, {4-[5-(6-bromo-1H-indazol-3-yl)-isoxazol-3-yl]-phenyl}-[(S)-2-(1-hydroxy-1-methyl-ethyl)-pyrrolidin-1-yl]-methanone] |
| 0.92 | 73 |  |  | COCCOc1cc2[nH]nc(-c3cc(-c4ccc(C(=O)N5CCCN(C6COC6)CC5)cc4)no3)c2cc1F [A198, 5-fluoro-6-(2-methoxyethoxy)-3-(3-{4-[4-(oxetan-3-yl)-1,4-diazepane-1-carbonyl]phenyl}-1,2-oxazol-5-yl)-1H-indazole] |
| 1.6 | 93 |  |  | COCCOc1cc2[nH]nc(-c3cc(-c4ccc(OCCN5CCS(=O)(=O)CC5)cc4)no3)c2cc1F [A132, 4-[2-(4-{5-[5-fluoro-6-(2-methoxyethoxy)-1H-indazol-3-yl]-1,2-oxazol-3-yl}phenoxy)ethyl]-1lambda6-thiomorpholine-1,1-dione] |
| 0.96 | 87 |  |  | COCCOc1cc2[nH]nc(-c3cc(-c4ccc(C(=O)N5CC(c6nc(C)no6)C5)cc4)no3)c2cc1F [A166, 5-fluoro-6-(2-methoxyethoxy)-3-(3-{4-[3-(3-methyl-1,2,4-oxadiazol-5-yl)azetidine-1-carbonyl]phenyl}-1,2-oxazol-5-yl)-1H-indazole] |
|  |  | 15 | 1000 | COCCOc1cc2[nH]nc(-c3cn(-c4ccc(N5CCN(C)CC5)cc4)nn3)c2cc1F [reference compound] |
| 12 | 340 |  |  | COCCOc1cc2[nH]nc(-c3cc(-c4ccc(C(=O)N5CC[C@@H]5C(C)(C)O)nc4)no3)c2cc1F [A119, (5-{5-[5-fluoro-6-(2-methoxy-ethoxy)-1H-indazol-3-yl]-isoxazol-3-yl}-pyridin-2-yl)-[(R)-2-(1-hydroxy-1-methyl-ethyl)-azetidin-1-yl]-methanone] |
| 1.1 | 120 |  |  | COCCOc1cc2[nH]nc(-c3cc(-c4ccc(C(=O)N5CCOC[C@@H]5CS(C)(=O)=O)cc4)no3)c2cc1F [A184, (4-{5-[5-fluoro-6-(2-methoxy-ethoxy)-1H-indazol-3-yl]-isoxazol-3-yl}-phenyl)-((R)-3-methanesulfonylmethyl-morpholin-4-yl)-methanone] |
| 1.4 | 59 |  |  | COCCOc1cc2[nH]nc(-c3cc(-c4ccc(C(=O)N5CC(n6cccn6)C5)cc4)no3)c2cc1F [A75, 5-fluoro-6-(2-methoxyethoxy)-3-(3-{4-[3-(1H-pyrazol-1-yl)azetidine-1-carbonyl]phenyl}-1,2-oxazol-5-yl)-1H-indazole] |
| 1.1 | 170 |  |  | COCCOc1cc2[nH]nc(-c3cc(-c4ccc(C(=O)N5CC6(CCO6)C5)cc4)no3)c2cc1F [A79, 5-fluoro-6-(2-methoxyethoxy)-3-[3-(4-{1-oxa-6-azaspiro[3.3]heptane-6-carbonyl}phenyl)-1,2-oxazol-5-yl]-1H-indazole] |
| 1.5 | 130 |  |  | COCCOc1cc2[nH]nc(-c3cc(-c4ccc(C(=O)NCC(C)(C)N5CCOCC5)cc4)no3)c2cc1F [A164, 4-{5-[5-fluoro-6-(2-methoxyethoxy)-1H-indazol-3-yl]-1,2-oxazol-3-yl}-N-[2-methyl-2-(morpholin-4-yl)propyl]benzamide] |
| 1.2 | 44 |  |  | COCCOc1cc2[nH]nc(-c3cc(-c4ccc(C(=O)N5CCC56COC6)c(C)c4)no3)c2cc1F [A169, (4-{5-[5-fluoro-6-(2-methoxy-ethoxy)-1H-indazol-3-yl]-isoxazol-3-yl}-2-methyl-phenyl)-(6-oxa-1-aza-spiro[3.3]hept-1-yl)-methanone] |
| 0.88 | 94 |  |  | COCCOc1cc2[nH]nc(-c3cc(-c4ccc(C(=O)N5CCOC[C@H]5CO)cc4)no3)c2cc1Cl [A67, (4-{5-[5-chloro-6-(2-methoxy-ethoxy)-1H-indazol-3-yl]-isoxazol-3-yl}-phenyl)-((R)-3-hydroxymethyl-morpholin-4-yl)-methanone] |
| 8 | 280 |  |  | COc1cc2[nH]nc(-c3cc(-c4ccc(C(=O)N5CCN(C6COC6)CC5)cc4)no3)c2cc1F [A219, {4-[5-(5-Fluoro-6-methoxy-1H-indazol-3-yl)-isoxazol-3-yl]-phenyl}-(4-oxetan-3-yl-piperazin-1-yl)-methanone] |
| 8.8 | 130 |  |  | C[C@H]1CN(C)CCN1C(=O)c1ccc(-c2cc(-c3n[nH]c4cc(-c5cnn(C)c5)ccc34)on2)cc1 [A9, 3-(3-{4-[(2S)-2,4-dimethylpiperazine-1-carbonyl]phenyl}-1,2-oxazol-5-yl)-6-(1-methyl-1H-pyrazol-4-yl)-1H-indazole] |
| 53 | 390 |  |  | COCCOc1cc2[nH]nc(-c3cc(-c4nc(C(=O)N(C)C)cs4)no3)c2cc1F [A93, 2-{5-[5-fluoro-6-(2-methoxyethoxy)-1H-indazol-3-yl]-1,2-oxazol-3-yl}-N,N-dimethyl-1,3-thiazole-4-carboxamide] |
| 2 | 79 |  |  | COCCOc1cc2[nH]nc(-c3cc(-c4ccc(C(=O)N5CC(N(C)C)C5)cc4)no3)c2cc1F [A76, 1-(4-{5-[5-fluoro-6-(2-methoxyethoxy)-1H-indazol-3-yl]-1,2-oxazol-3-yl}benzoyl)-N,N-dimethylazetidin-3-amine] |
| 8.8 | 510 |  |  | COCCOc1cc2[nH]nc(-c3cc(-c4ccc(-n5cncn5)cc4)no3)c2cc1Cl [A14, 5-chloro-6-(2-methoxyethoxy)-3-{3-[4-(1H-1,2,4-triazol-1-yl)phenyl]-1,2-oxazol-5-yl}-1H-indazole] |
| 0.83 | 46 |  |  | COCCOc1cc2[nH]nc(-c3cc(-c4ccc(C(=O)N5CCC(N6CCOCC6)C5)cc4)no3)c2cc1F (stereo not shown) [A153, 5-fluoro-6-(2-methoxyethoxy)-3-(3-{f4-[3-(morpholin-4-yl)pyrrolidine-1l-carbonyl]phenyl}-1,2-oxazol-5-yl)-1H-indazole] |
| 1 | 65 |  |  | COCCOc1cc2[nH]nc(-c3cc(-c4ccc(C(=O)N5CC(N6CCCCC6)C5)cc4)no3)c2cc1F [A177, 5-fluoro-6-(2-methoxyethoxy)-3-(3-{4-[3-(piperidin-1-yl)azetidine-1-carbonyl]phenyl}-1,2-oxazol-5-yl)-1H-indazole] |
| 2.5 | 170 |  |  | COCCOc1cc2[nH]nc(-c3cc(-c4ccc(C(=O)N5CCC6(CN(C)C6)C5)cc4)no3)c2cc1F [A160, 5-fluoro-6-(2-methoxyethoxy)-3-[3-(4-{2-methyl-2,6-diazaspiro[3.4]octane-6-carbonyl}phenyl)-1,2-oxazol-5-yl]-1H-indazole] |
| 0.91 | 160 |  |  | COCCOc1cc2[nH]nc(-c3cc(-c4ccc(C(=O)N(C)C)cc4)no3)c2cc1Cl [A12, 4-{5-[5-chloro-6-(2-methoxyethoxy)-1H-indazol-3-yl]-1,2-oxazol-3-yl}-N,N-dimethylbenzamide] |
